Where “and” joins values, the source holds several entries; their conditions need not be identical. Equal values may be shown once. Read-outs that look alike come from different tables or passages of the source. Marks after values point to notes of the source that are not given here.
Key:
Lewis rats = assay: Tolerability of constant (mini-infusion pump) versus pulse-like (oral) blood levels (Example 5); assay type: in vivo, rat
Description: (§1) In order to attain constant blood levels, a mini-infusion pump was subcutaneously implanted into experimental animals. The mini-infusion pumps contained 2 ml of a 15% strength ethanolic solution of compound 1, which was continuously released over 28 days. Doses of 2.5, 5, 10 and 25 mg/kg/day were employed. For comparison, animals which received the same daily doses of the compound 1, but administered orally, were implanted with mini-infusion pumps; these, however, were filled with only the vehicle (15% ethanol in water). A 1% strength CMC was additionally administered orally to animals which received the compound 1 via mini-infusion pumps. The survival of the animals was taken as a course parameter. Additionally, blood was taken on day 5 and day 27 in order to determine the blood levels of compound 1. Blood was taken from animals 4 hours after oral administration of compound 1. The group was comprised of 6 male Lewis rats having a body weight of approximately 210 g. Corresponding to the preceding experiments, adjuvant arthritis was induced in the animals on day 5.
(§2) For the attainment of constant blood levels of compound 1, the animals were implanted subcutaneously with a mini-infusion pump which supplied compound 1 to the animals continuously for 28 days. By means of this pump, constant blood levels of compound 1 were attained. Thus long half-lives of compound 1, such as are observed in humans, were simulated.
(§3) For the comparison group, animals were treated with the identical daily dose of compound 1, but received the substance orally rather than by mini-infusion pump.
(§4) In this experiment, the tolerability of the compound 1 with a short half-life (compound 1 orally administered) was compared with the tolerability of the compound 1 with a long half-life (compound 1 by pump with a constant infinite half-life). The doses employed were 2.5 mg/kg/day, 5 mg/kg/day, 10 mg/kg/day and 25 mg/kg/day. The number of animals surviving the treatment was used as a measure of the tolerability. The tolerability was moreover compared with respect to the observed blood levels.

[1] = as above; assay type: in vivo, rat; settings: male, Lewis, rat, plasma, subcutaneous, read-out: Compound 1 blood plasma level (day 27)
Description: as §1, §2, §3, §4

[2] = Half-life in the blood plasma of humans; assay type: in vivo; settings: human
Description: The measurement is determined by calculating the half-life of a nucleotide synthesis inhibitor in the blood of a mammal, which is relevant for pharmacokinetic ratios in humans, or in humans in phase I clinical trial development, and comparing it with that of a known nucleotide synthesis inhibitor. The term “half-life” is understood as meaning the time in which the concentration of the nucleotide synthesis inhibitor in the blood plasma is halved. This invention for finding nucleotide synthesis inhibitors which have lower side effects therefore includes

[3] = system: adjuvant-induced arthritis; assay: Adjuvant-induced arthritis model, colestyramine 4 hours after compound 1 (Example 3); assay type: in vivo; settings: for Increase in body weight / Reduction in arthritis score / Reduction in paw swelling / Surviving animals: orally
Description: Example 3 illustrates an experiment to determine whether the action of the minimally effective dose of compound 1 is reduced by administration of colestyramine at a time interval of 4 hours. This was investigated in the adjuvant-induced arthritis model. The model was carried out according to Example 1. Compound 1 was administered orally in 1% CMC daily from the start to the end of the investigation in a dose of 2.5 mg/kg/day. Colestyramine was likewise administered orally in 1% CMC 4 hours after the administration of compound 1. The corresponding control groups received equal volumes of a 1% CMC at the corresponding times.
In Example 3, we investigated whether relatively constant blood levels existing over a fairly long time were responsible for the desired effects of compound 1 on the immune system, or whether blood levels occurring for a short time (peak blood levels) of compound 1 caused this effect.
For this, compound 1 was administered orally once daily at the lowest efficacious dose of 2.5 mg/kg/day (see Example 1). In the corresponding comparison groups, colestyramine was administered 4 hours after administration of compound 1 in order to lower the blood levels of compound 1 in an accelerated manner after the absorption phase had taken place. By means of this, the action of blood levels of compound 1 existing for different lengths of time on the immunologically related pathological processes in adjuvant-induced arthritis in the rat was investigated.

[4] = 2.5 mg/kg/day of compound 1 alone
[5] = 2.5 mg/kg/day of compound 1 and 1000 mg/kg/day of cholestyramine 4 hours later

With `C/C(O)=C(\C#N)C(=O)Nc1ccc(C(F)(F)F)cc1` [compound 1, N-(4-trifluoromethylphenyl)-2-cyano-3-hydroxycrotonamide] the Body weight increase (Lewis rats; 2.5 mg/kg/day mini-infusion) was “+22%”, the “Compound 1 blood plasma level (day 5)” value (Lewis rats; 2.5 mg/kg/day mini-infusion) was 2.05 μg/ml ± and the “Compound 1 blood plasma level (day 27)” value (Lewis rats; 2.5 mg/kg/day mini-infusion) was 2.34 μg/ml ±. The Surviving animals (Lewis rats; 2.5 mg/kg/day mini-infusion) was 100%, the Body weight increase (Lewis rats; 2.5 mg/kg/day p.o.) was “+29%” and the Surviving animals (Lewis rats; 2.5 mg/kg/day p.o.) was 100%. For the same molecule, the Body weight increase (Lewis rats; 5 mg/kg/day mini-infusion) was “+26%”, the “Compound 1 blood plasma level (day 5)” value (Lewis rats; 5 mg/kg/day mini-infusion) was 3.57 μg/ml ± and the “Compound 1 blood plasma level (day 27)” value (Lewis rats; 5 mg/kg/day mini-infusion) was 4.18 μg/ml ±. The Surviving animals (Lewis rats; 5 mg/kg/day mini-infusion) was 100%, the Body weight increase (Lewis rats; 5 mg/kg/day p.o.) was “+25%” and the Surviving animals (Lewis rats; 5 mg/kg/day p.o.) was 100%. The “Compound 1 blood plasma level (day 5)” value (Lewis rats; 5 mg/kg/day p.o., 4 hours after oral administration) was 14.31 µg/µg/mL, the Body weight increase (Lewis rats; 10 mg/kg/day mini-infusion) was “+29%” and the “Compound 1 blood plasma level (day 5)” value (Lewis rats; 10 mg/kg/day mini-infusion) was 4.55 μg/ml ±. For the same molecule, the “Compound 1 blood plasma level (day 27)” value (Lewis rats; 10 mg/kg/day mini-infusion) was 6.72 μg/ml ±, the Surviving animals (Lewis rats; 10 mg/kg/day mini-infusion) was 100% and the Body weight increase (Lewis rats; 10 mg/kg/day p.o.) was “+27%”. The Surviving animals (Lewis rats; 10 mg/kg/day p.o.) was 100%, the “Compound 1 blood plasma level (day 27)” value (Lewis rats; 10 mg/kg/day p.o., 4 hours after oral administration) was 34.35 μg/ml and 34.35 μg/ μg/ml and the Surviving animals (Lewis rats; 25 mg/kg/day mini-infusion) was 17%. The “blood plasma levels, extrapolated from the values at lower doses” value (Lewis rats; 25 mg/kg/day mini-infusion pump) was at most 15000 ng/mL, the Body weight increase (Lewis rats; 25 mg/kg/day mini-infusion, determined in one surviving animal only) was “+13%*” and the survival (Lewis rats; 25 mg/kg/day orally administered) was “all animals”. The Body weight increase (Lewis rats; 25 mg/kg/day p.o.) was −2%, the Surviving animals (Lewis rats; 25 mg/kg/day p.o.) was 100% and the concentration at 27 day ([1]; 2.5 mg/kg/day mini-infusion) was 2340 ng/mL. It also gave a concentration at 27 day ([1]; 5 mg/kg/day mini-infusion) of 4180 ng/mL, a concentration at 27 day ([1]; 10 mg/kg/day mini-infusion) of 6720 ng/mL and a half-life [2] of at most 14.6 days. The half-life ([2]; approximately) was about 14 days, the “desired action on adjuvant-induced arthritis with versus without colestyramine 4 hours after compound 1” value ([3]; 2.5 mg/kg/day of compound 1) was “No difference was seen” and the “Increase in body weight” value [3, 4] was 20%. For the same molecule, the “Reduction in arthritis score” value [3, 4] was 70%, the “Reduction in paw swelling” value [3, 4] was 78% and the Surviving animals [3, 4] was 100%. The “Increase in body weight” value [3, 5] was 20%, the “Reduction in arthritis score” value [3, 5] was 81% and the “Reduction in paw swelling” value [3, 5] was 86%. The Surviving animals [3, 5] was 100%.
